{
  "source": "ChEMBL document CHEMBL1131707",
  "about": "“Methionyl adenylate analogues as inhibitors of methionyl-tRNA synthetase” (1999)",
  "key": {"Bacillus cereus": {"tested_on": "Bacillus cereus", "assay": "Antibacterial activity of compound was determined against Bacillus cereus ATCC 27348", "format": "functional"}, "Escherichia coli": {"tested_on": "Escherichia coli", "assay": "Antibacterial activity of compound was determined against Escherichia coli JM109", "format": "functional"}, "Klebsiella pneumoniae": {"tested_on": "Klebsiella pneumoniae", "assay": "Antibacterial activity of compound was determined against Klebsiella pneumoniae 2011E", "format": "functional"}, "Klebsiella aerogenes": {"tested_on": "Klebsiella aerogenes", "assay": "Antibacterial activity of compound was determined against Klebsiella aerogenes 1976E", "format": "functional"}, "Pseudomonas aeruginosa": {"tested_on": "Pseudomonas aeruginosa", "assay": "Antibacterial activity of compound was determined against Pseudomonas aeruginosa 1912", "format": "functional"}, "Salmonella typhimurium": {"tested_on": "Salmonella typhimurium", "assay": "Antibacterial activity of compound was determined against Salmonella Typhimurium 14028", "format": "functional, Salmonella enterica subsp. enterica serovar Typhimurium", "details": "Salmonella enterica"}, "Staphylococcus aureus": {"tested_on": "Staphylococcus aureus", "assay": "Antibacterial activity of compound was determined against Staphylococcus aureus 1538p", "format": "functional"}, "[1]": {"tested_on": "Staphylococcus epidermidis", "assay": "Antibacterial activity of compound was determined against […] 887E", "format": "functional"}},
  "data": [
    {"smiles": "CSCC[C@H](N)C(=O)NC[C@H]1OC(n2cnc3c(N)ncnc32)[C@H](O)[C@@H]1O", "note": "(stereo not given in full)", "values": [
      {"measurement": "MIC", "setting": "Bacillus cereus", "result": "> 64", "unit": "µg/mL"},
      {"measurement": "MIC", "setting": "Escherichia coli", "result": 1, "unit": "µg/mL"},
      {"measurement": "MIC", "setting": "Klebsiella pneumoniae", "result": "> 64", "unit": "µg/mL"},
      {"measurement": "MIC", "setting": "Klebsiella aerogenes", "result": "> 64", "unit": "µg/mL"},
      {"measurement": "MIC", "setting": "Pseudomonas aeruginosa", "result": "> 64", "unit": "µg/mL"},
      {"measurement": "MIC", "setting": "Salmonella typhimurium", "result": "> 64", "unit": "µg/mL"},
      {"measurement": "MIC", "setting": "Staphylococcus aureus", "result": "> 64", "unit": "µg/mL"},
      {"measurement": "MIC", "setting": "[1]", "result": "> 64", "unit": "µg/mL"}
    ]},
    {"smiles": "CSCC[C@H](N)C(=O)N(O)C[C@H]1OC(n2cnc3c(N)ncnc32)[C@H](O)[C@@H]1O", "note": "(stereo not given in full)", "values": [
      {"measurement": "MIC", "setting": "Bacillus cereus", "result": 8, "unit": "µg/mL"},
      {"measurement": "MIC", "setting": "Escherichia coli", "result": 0.5, "unit": "µg/mL"},
      {"measurement": "MIC", "setting": "Klebsiella pneumoniae", "result": "> 64", "unit": "µg/mL"},
      {"measurement": "MIC", "setting": "Klebsiella aerogenes", "result": "> 64", "unit": "µg/mL"},
      {"measurement": "MIC", "setting": "Pseudomonas aeruginosa", "result": "> 64", "unit": "µg/mL"},
      {"measurement": "MIC", "setting": "Salmonella typhimurium", "result": "> 64", "unit": "µg/mL"},
      {"measurement": "MIC", "setting": "Staphylococcus aureus", "result": "> 64", "unit": "µg/mL"},
      {"measurement": "MIC", "setting": "[1]", "result": "> 64", "unit": "µg/mL"}
    ]},
    {"smiles": "CSCC[C@H](N)C(=O)OC[C@H]1O[C@@H](n2cnc3c(N)ncnc32)[C@H](O)[C@@H]1O", "values": [
      {"measurement": "MIC", "setting": "Bacillus cereus", "result": 32, "unit": "µg/mL"},
      {"measurement": "MIC", "setting": "Escherichia coli", "result": 0.5, "unit": "µg/mL"},
      {"measurement": "MIC", "setting": "Klebsiella pneumoniae", "result": "> 64", "unit": "µg/mL"},
      {"measurement": "MIC", "setting": "Klebsiella aerogenes", "result": "> 64", "unit": "µg/mL"},
      {"measurement": "MIC", "setting": "Pseudomonas aeruginosa", "result": "> 64", "unit": "µg/mL"},
      {"measurement": "MIC", "setting": "Salmonella typhimurium", "result": "> 64", "unit": "µg/mL"},
      {"measurement": "MIC", "setting": "Staphylococcus aureus", "result": "> 64", "unit": "µg/mL"},
      {"measurement": "MIC", "setting": "[1]", "result": "> 64", "unit": "µg/mL"}
    ]},
    {"smiles": "CSCC[C@H](N)C(=O)NO", "values": [
      {"measurement": "MIC", "setting": "Bacillus cereus", "result": "> 64", "unit": "µg/mL"},
      {"measurement": "MIC", "setting": "Escherichia coli", "result": 0.5, "unit": "µg/mL"},
      {"measurement": "MIC", "setting": "Klebsiella pneumoniae", "result": "> 64", "unit": "µg/mL"},
      {"measurement": "MIC", "setting": "Klebsiella aerogenes", "result": 4, "unit": "µg/mL"},
      {"measurement": "MIC", "setting": "Pseudomonas aeruginosa", "result": "> 64", "unit": "µg/mL"},
      {"measurement": "MIC", "setting": "Salmonella typhimurium", "result": 8, "unit": "µg/mL"},
      {"measurement": "MIC", "setting": "Staphylococcus aureus", "result": "> 64", "unit": "µg/mL"},
      {"measurement": "MIC", "setting": "[1]", "result": "> 64", "unit": "µg/mL"}
    ]},
    {"smiles": "CSCC[C@H](N)C(=O)NOC[C@H]1OC(n2cnc3c(N)ncnc32)[C@H](O)[C@@H]1O", "note": "(stereo not given in full)", "values": [
      {"measurement": "MIC", "setting": "Bacillus cereus", "result": "> 64", "unit": "µg/mL"},
      {"measurement": "MIC", "setting": "Escherichia coli", "result": 8, "unit": "µg/mL"},
      {"measurement": "MIC", "setting": "Klebsiella pneumoniae", "result": "> 64", "unit": "µg/mL"},
      {"measurement": "MIC", "setting": "Klebsiella aerogenes", "result": "> 64", "unit": "µg/mL"},
      {"measurement": "MIC", "setting": "Pseudomonas aeruginosa", "result": "> 64", "unit": "µg/mL"},
      {"measurement": "MIC", "setting": "Salmonella typhimurium", "result": "> 64", "unit": "µg/mL"},
      {"measurement": "MIC", "setting": "Staphylococcus aureus", "result": "> 64", "unit": "µg/mL"},
      {"measurement": "MIC", "setting": "[1]", "result": "> 64", "unit": "µg/mL"}
    ]}
  ]
}
